# According to US9400280B2, “Piperidine derivatives and methods of treating hepatitis B infections” (Novira Therapeutics, Inc., priority 2014, dated 2016):
# Assays:
# [1] = system: HBV replication in HepG2-2.2.15 cells; assay: Dot-blot assay (inhibition of HBV replication); type: cell-based; conditions: at 10 μM, six days, reduction in HBV DNA levels
# Description: Compounds active in the HBV assembly assay are tested for their activity and toxicity in cellular assay. In the first anti-viral assay, the ability of compounds to inhibit HBV replication in an HBV-producing hepatoma cell line using the dot-blot method is evaluated.
# Briefly, confluent monolayers of HepG2-2.2.15 cells are incubated with complete medium containing various concentrations of a test compound. Three days later, the culture medium is replaced with fresh medium containing the appropriately diluted test compound. Six days following the initial administration of the test compound, the cell culture supernatant is collected, and cell lysis is performed. The samples are applied onto Nylos membranes and DNA is immobilized to the membrane by UV cross-linking. After pre-hybridization, the HBV probe is added and the hybridization is performed overnight. The membranes are exposed to the Kodak films; antiviral activity is calculated from the reduction in HBV DNA levels (EC50). The EC50 for antiviral activity is calculated from the dose response curves of active compounds. Assay performance over time is monitored by the use of the standard positive control compounds ETV, BAY 41-4109, and HAP-1.
# Selected compounds were tested for their activity and toxicity in cellular assay. In the first anti-viral assay, the ability of compounds to inhibit HBV replication in an HBV-producing hepatoma cell line using the dot-blot method was evaluated.
# Confluent monolayers of HepG2-2.2.15 cells were incubated with complete medium containing various concentrations of a test compound. Three days later, the culture medium was replaced with fresh medium containing the appropriately diluted test compound. Six days following the initial administration of the test compound, the cell culture supernatant was collected, and cell lysis was performed. The samples were applied onto Nylos membranes and DNA was immobilized to the membrane by UV cross-linking. After pre-hybridization, the HBV probe was added and the hybridization was performed overnight. The membranes were exposed to the Kodak films; antiviral activity was calculated from the reduction in HBV DNA levels (EC50). The EC50 for antiviral activity was calculated from the dose response curves of active compounds. Assay performance over time was monitored by the use of the standard positive control compounds ETV, BAY 41-4109, and HAP-1.
# [2] = biological target: HBV C150Bo capsid (core) protein (Hepatitis B virus genotype D subtype adw, UniProt P03147, C107A/C48A/C61A/R150C); assay: HBV assembly assay (fluorescence quenching in vitro capsid assembly); type: biochemical; conditions: at about 10 μM; 50 mM Hepes pH 7.5, 150 mM NaCl, 1 hour at room temperature
# Chain of HBV C150Bo capsid (core) protein (P03147 1-150 C48A/C61A/C107A/R150C): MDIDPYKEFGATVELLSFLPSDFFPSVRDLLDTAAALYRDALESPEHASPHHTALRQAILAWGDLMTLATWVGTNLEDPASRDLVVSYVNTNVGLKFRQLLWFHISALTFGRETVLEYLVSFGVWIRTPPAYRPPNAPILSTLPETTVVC
smiles,measurement,setting,value
O=C(Nc1cc(F)c(F)c(F)c1)c1ccc(F)c(S(=O)(=O)N2CCC(O)C(F)(F)C2)c1 (stereo not drawn) [Compound 1732],Activity in dot-blot-assay,[1],+ (‘+’ indicates >50% activity at 10 (μM))
same,Activity (HBV assembly assay),[2],+ (‘+’ indicates >50% activity at about 10 (μM))
O=C(Nc1ccc(F)c(F)c1)c1ccc(F)c(S(=O)(=O)N2CCC(O)C(F)(F)C2)c1 (stereo not drawn) [Compound 1733],Activity in dot-blot-assay,[1],+ (‘+’ indicates >50% activity at 10 (μM))
same,Activity (HBV assembly assay),[2],+ (‘+’ indicates >50% activity at about 10 (μM))
O=C(Nc1ccc(F)c(Cl)c1)c1ccc(F)c(S(=O)(=O)N2CCC(O)C(F)(F)C2)c1 (stereo not drawn) [Compound 1734],Activity in dot-blot-assay,[1],+ (‘+’ indicates >50% activity at 10 (μM))
same,Activity (HBV assembly assay),[2],+ (‘+’ indicates >50% activity at about 10 (μM))
O=C(Nc1ccc(F)c(Cl)c1)c1ccc(O)c(S(=O)(=O)N2CCC(O)C(F)(F)C2)c1 (stereo not drawn) [Compound 1963],Activity (HBV assembly assay),[2],+ (‘+’ indicates >50% activity at about 10 (μM))
COc1ccc(C(=O)Nc2ccc(F)c(Cl)c2)cc1S(=O)(=O)N1CCC(O)C(F)(F)C1 (stereo not drawn) [Compound 1964],Activity (HBV assembly assay),[2],+ (‘+’ indicates >50% activity at about 10 (μM))
CCOc1ccc(C(=O)Nc2ccc(F)c(Cl)c2)cc1S(=O)(=O)N1CCC(O)C(F)(F)C1 (stereo not drawn) [Compound 1965],Activity (HBV assembly assay),[2],+ (‘+’ indicates >50% activity at about 10 (μM))
O=C(Nc1ccc(F)c(Cl)c1)c1ccc(OC2CC2)c(S(=O)(=O)N2CCC(O)C(F)(F)C2)c1 (stereo not drawn) [Compound 1967],Activity (HBV assembly assay),[2],+ (‘+’ indicates >50% activity at about 10 (μM))
O=C(Nc1ccc(F)c(Cl)c1)c1ccc(CF)c(S(=O)(=O)N2CCC(O)C(F)(F)C2)c1 (stereo not drawn) [Compound 1995],Activity in dot-blot-assay,[1],+ (‘+’ indicates >50% activity at 10 (μM))
same,Activity (HBV assembly assay),[2],+ (‘+’ indicates >50% activity at about 10 (μM))
